Experimental data taken from patent publication US9556139B2, “6-substituted phenoxychroman carboxylic acid derivatives” (Array BioPharma Inc., priority 2008, dated 2017).
Like-named read-outs stand apart in the source and are kept apart here.

Biological target: human DP2 (Homo sapiens (Human), UniProt Q9Y5Y4)
Assay: DP-2 Binding Inhibition Assay (3H-PGD2 binding to membranes of K562 cells expressing DP2)
Details: for EC50: inhibition of 3H-PGD2 binding; for relative activity of the enantiomers in the DP2 binding inhibition assay: assay described in Example A
Method in brief: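 Membranes from K562 stably expressing DP2, incubated 60 min at room temperature with ³H-PGD2 and compound in Tris pH 7.4 buffer with 0.1% BSA, 1% HSA or 4% HSA; filtration read-out. Nonspecific binding: 1 μM unlabeled PGD2 or 5 μM known antagonist. EC50 from 4-parameter logistic fit.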

[1] = read-out: EC50 (nM) 4% HSA, 4% HSA
[2] = read-out: EC50 (Nm) 1% HSA, 1% HSA

human DP2, sequence (Q9Y5Y4 whole entry): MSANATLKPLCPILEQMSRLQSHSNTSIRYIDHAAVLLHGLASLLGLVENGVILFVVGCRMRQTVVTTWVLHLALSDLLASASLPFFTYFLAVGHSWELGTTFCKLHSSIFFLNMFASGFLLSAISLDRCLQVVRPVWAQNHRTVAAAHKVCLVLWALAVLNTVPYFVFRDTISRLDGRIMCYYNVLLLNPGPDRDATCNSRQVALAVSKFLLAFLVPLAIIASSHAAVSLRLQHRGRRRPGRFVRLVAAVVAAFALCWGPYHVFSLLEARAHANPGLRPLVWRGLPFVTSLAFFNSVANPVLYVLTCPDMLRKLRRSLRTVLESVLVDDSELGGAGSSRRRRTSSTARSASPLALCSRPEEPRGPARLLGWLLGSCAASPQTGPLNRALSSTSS

SMILES | EC50 [1] [nM] | other results
O=C(NCCCc1ccccc1)c1ccc(Oc2cc3c(cc2Cl)C(C(=O)O)CCO3)cc1 (centres unmarked) [Example 78, Sodium 6-chloro-7-(4-(3-phenylpropylcarbamoyl)phenoxy)chroman-4-carboxylate] | 681 | 
O=C(NCC(F)(F)c1ccc(Cl)cc1)c1ccc(Oc2cc3c(cc2Cl)C(C(=O)O)CCO3)cc1 (centres unmarked) [Example 195, sodium 6-chloro-7-(4-(2-(4-chlorophenyl)-2,2-difluoroethylcarbamoyl)phenoxy)chroman-4-carboxylate] | 1150 | 
O=C(NC1CCN(c2cccc(Cl)c2)CC1)c1ccc(Oc2cc3c(cc2Cl)C(C(=O)O)CCO3)cc1 (centres unmarked) [Example 120, Sodium 6-chloro-7-(4-(1-(3-chlorophenyl)piperidin-4-ylcarbamoyl)phenoxy)chroman-4-carboxylate] | 371 | 
COc1cccc(CCNC(=O)c2ccc(Oc3cc4c(cc3Cl)C(C(=O)O)CCO4)cc2)c1 (centres unmarked) [Example 143, Sodium 6-chloro-7-(4-(3-methoxyphenethylcarbamoyl)phenoxy)chroman-4-carboxylate] | 1010 | 
COc1ccc2c(c1)CCC(NC(=O)c1ccc(Oc3cc4c(cc3C#N)C(C(=O)O)CCO4)cc1)C2 (centres unmarked) [Example 53, 6-Cyano-7-(4-(6-methoxy-1,2,3,4-tetrahydronaphthalen-2-ylcarbamoyl)phenoxy)chroman-4-carboxylic acid] |  | EC50 [2]: 60.5 nM
N#Cc1cc2c(cc1Oc1ccc(C(=O)NCCc3ccc4ccccc4c3)cc1)OCCC2C(=O)O (centres unmarked) [Example 56, 6-Cyano-7-(4-(2-(naphthalen-2-yl)ethylcarbamoyl)phenoxy)chroman-4-carboxylic acid] |  | EC50 [2]: 14.2 nM
O=C(N[C@H]1CCCN(c2cccc(Cl)c2)C1)c1ccc(Oc2cc3c(cc2Cl)C(C(=O)O)CCO3)cc1 (stereo partly drawn) [Example 125, Sodium 6-chloro-7-(4-((S)-1-(3-chlorophenyl)piperidin-3-ylcarbamoyl)phenoxy)chroman-4-carboxylate] | 421 | 
COc1cc(C2CC2)ccc1CCNC(=O)c1ccc(Oc2cc3c(cc2Cl)C(C(=O)O)CCO3)cc1 (single isomer, unassigned) [235 Enantiomer 1, 6-chloro-7-(4-(4-cyclopropyl-2-methoxyphenethylcarbamoyl)phenoxy)chroman-4-carboxylic acid] |  | EC50 (EC50 (nM) 4% HSA, 4% HSA): > 5000 nM; relative activity of the enantiomers in the DP2 binding inhibition assay: less active than the sodium salt of Enantiomer 2
O=C(NCCc1ccc(Cl)cc1)c1ccc(Oc2cc3c(cc2Cl)C(C(=O)O)CCO3)cc1 (single isomer, unassigned) [Example 11 Enantiomer 2, 6-Chloro-7-(4-(4-chlorophenethylcarbamoyl)phenoxy)chroman-4-carboxylic acid] |  | EC50 (EC50 (Nm) 1% HSA, 1% HSA): 9.3 nM; EC50 (EC50 (nM) 4% HSA, 4% HSA): 111 nM; relative activity of the enantiomers in the DP2 binding inhibition assay: more potent DP2 binding enantiomer

More lines, main results first:

EC50 [1] [nM] | SMILES | other results
153 | COc1ccc(Br)cc1CCNC(=O)c1ccc(Oc2cc3c(cc2Cl)C(C(=O)O)CCO3)cc1 (centres unmarked) [Example 90, Sodium 7-(4-(5-bromo-2-methoxyphenethylcarbamoyl)phenoxy)-6-chlorochroman-4-carboxylate] | 
206 | O=C(NC1CCN(c2cccc(Cl)c2)C1)c1ccc(Oc2cc3c(cc2Cl)C(C(=O)O)CCO3)cc1 (centres unmarked) [Example 119, Sodium 6-chloro-7-(4-(1-(3-chlorophenyl)pyrrolidin-3-ylcarbamoyl)phenoxy)chroman-4-carboxylate] | 
107 | O=C(NCCc1ccccc1C1CC1)c1ccc(Oc2cc3c(cc2Cl)C(C(=O)O)CCO3)cc1 (centres unmarked) [Example 93, Sodium 6-chloro-7-(4-(2-cyclopropylphenethylcarbamoyl)phenoxy)chroman-4-carboxylate] | 
216 | Cc1cc(Cl)ccc1CCNC(=O)c1ccc(Oc2cc3c(cc2Cl)C(C(=O)O)CCO3)cc1 (centres unmarked) [Example 27, Sodium 6-chloro-7-(4-(4-chloro-2-methylphenethylcarbamoyl)phenoxy)chroman-4-carboxylate] | 
56 | CCOc1ccc(CCNC(=O)c2ccc(Oc3cc4c(cc3Cl)C(C(=O)O)CCO4)cc2)c(OCC)c1 (centres unmarked) [Example 225, 6-chloro-7-(4-(2,4-diethoxyphenethylcarbamoyl)phenoxy)chroman-4-carboxylic acid] | 
